In patent US7989495B2, “Compositions and methods for inhibiting NF-κB mediated tumorigenicity and adhesion dependent survival of cancer cells” (University of Utah Research Foundation, priority 2002, dated 2011):

Test system: HT-29 colon cancer cell line
Experiment: Cell proliferation assay (crystal violet, 590 nm)
Assay type: cell-based
Settings: 10 μM, cultured 8 days
Protocol: DLD-1, HCT-116, and HT-29 colon cancer cell lines were obtained from the ATCC collection and were cultured in Dulbecco's Modification of Eagle's Medium supplemented with 10% fetal bovine serum, glutamine, penicillin, and streptomycin. 293 cells stably transfected with COX-2 (293-COX-2) under the control of a ponasterone sensitive promoter were cultured in Dulbecco's Modification of Eagle's Medium supplemented with 10% fetal bovine serum, 400 μg/ml of zeocin, 400 μg/ml of G418, glutamine, penicillin, and streptomycin. For induction of COX-2 protein expression, 293-COX-2 cells were cultured for 48 hours in media supplemented with 1 μg/ml of ponasterone. All cells were cultured at 37° C. in a humidified incubator with a 5% CO2 atmosphere.
For the cell proliferation assay, cells were dispersed and plated at 40,000 cells/well in 96-well dishes. At various days in culture, the cells were gently washed twice with 100 μl/well of ice-cold blocking buffer (1% radioimmunoassay grade BSA in PBS) and twice with 100 μl/well of ice-cold PBS. The cells were fixed for 10 min in 100% ice-cold methanol (100 μl/well), then allowed to air-dry. The cells were stained with 100μl/well of 0.1% crystal violet in H2O for 10 minutes, then washed gently four times with dd H20 and four times with PBS. The plates were then air-dried completely. The stained cells were then solubilized in 1% sodium deoxycholate, and the plates read at 590 nm in a spectrophotometer. The absorption at 590 nm is proportional to the number of attached cells.

## CC(C)(C)c1ccc(S(=O)(=O)/C=C/C#N)cc1 [BAY 11-7085, (2E)-3-[4-(tertiarybutylphenyl)sulfonyl]-2-propenenitrile]
  inhibition of cell proliferation: greatly inhibited cell proliferation
